Measurements: patent US11660291B2, “IL-8 inhibitors for use in the treatment of some sarcomas” (Dompe' Farmaceutici S.P.A., priority 2017, dated 2023)
Entries after “also recorded” stand apart in the source; their conditions may differ.

Key:
OS-17 cells = test: Transwell migration and invasion assays, serum as chemoattractant, small molecule inhibitors; assay type: cell-based, human; details: 24 hours
Procedure: OS cells were cultured on a transwell chamber membrane, then subjected transferred to a chamber containing RPMI with 2.5% FBS (pos ctl) or RPMI alone (neg ctl). Other wells containing 2.5% FBS in the bottom chamber were treated with 1 uM sc144, 10 nM D[…], or both. After 24 hours, top chambers were scraped clean, membranes stained and cells counted. Transwell migration and invasion assays. 1×10^4 OS cells were plated into transwell inserts (either Falcon #353097 for migration or Corning #354483 for Matrigel invasion assays) containing appropriate chemotactic factors. After 24 hours of incubation, transwells were drained and upper chambers/membrane upper surfaces scraped using a polyester swab. Membranes were stained using a Dif-Quik Stain Set (Siemens #B4132-1A) and dried, then imaged on an inverted microscope. Cells were quantified using Adobe Photoshop counting tools. For experiments involving IL-6 and IL-8 chemotaxis, media contained 1% FBS in both chambers, with recombinant protein added to the bottom chamber to make 50 ng/ml IL6 (BioLegend #570804) or 100 ng/ml IL-8 (BioLegend #574204). For experiments using serum as a chemoattractant, top chambers contained RPMI only, while bottom chambers contained 1% or 2.5% serum. Where noted, 20 ug/ml of neutralizing antibodies to either IL6 (Abcam #AB6672), IL-8 (Abcam #AB18672), or both were added to both upper and lower chambers. […]

pFAK = test: PD analysis in lung tissue, IHC for pFAK; assay type: in vivo, mouse
Procedure: Mice treated with injections of either DF2156A or sc144 daily were euthanized 24 hours subsequent to their 14th dose of drug. Lungs harvested from those mice were processed using standard FFPE, then sectioned and stained with IHC for either pFAK (downstream of IL-8) or pSTAT3 (downstream of IL-6).
To evaluate the functional importance of IL-6 and IL-8 pathways to OS lung metastasis, the present inventors used the xenograft models. Balb-SCID mice inoculated via tail vein with 1×10^6 luciferase-labeled OS-17 cells received treatment with sc144 (the gp130 inhibitor), DF2156A (the CXCR1/2 inhibitor), or both. Mice continued to receive treatment for 42 days, after which treatment stopped. Intravital imaging for in vivo assessment of tumor burden was performed at 14 and 24 days using standard bioluminescent techniques. […] Two mice from each single-agent treatment group were euthanized 24 hours after the 14th dose of drug to perform pharmacodynamics (PD) assessment of target inhibition.

## C[C@@H](C(=O)NS(C)(=O)=O)c1ccc(OS(=O)(=O)C(F)(F)F)cc1 [DF2156A]
OS-17 cells; serum (2.5% FBS) as chemoattractant, 1 uM sc144, 10 nM DF2156A (FIG. 2)
  directional migration and invasion: suffices to prevent directional migration and invasion
OS-17 cells; serum as chemoattractant, transwell
  amount of migration of OS cells: significantly decreased the amount of migration
pFAK; 24 hours after the 14th daily dose (dosing trough)
  pFAK IHC staining in lung (target inhibition, downstream of IL-8): sustained target inhibition; also recorded: reduced the amount of activation seen
pFAK; 24 hours after the 14th daily dose (trough concentrations)
  number of infiltrating cells in lung: reduced
